System: rabbit platelet
Test: Effect on 9,11-azo PGH2 induced aggregation of rabbit platelet in vitro
Format: cell-based
Details: Oryctolagus cuniculus, rabbit PRP, 9,11-azo PGH2 final 1.0 μM, 37° C., 2 minutes preincubation, read-out: IC50 (Inhibition concentration of platelet aggregation by 50%)
Text: In the following tests, the used 9, 11-azo PGH2 and 9,11-methanoepoxy PGH2 (U46619) are characterized pharmacologically as TXA2 mimetic agents and widely used for evaluating TXA2 antagonism of test compounds (for example, vida The Journal of Pharmacology and Experimental Therapeutics Vol. 234, pp 435-441).
Test 1 (Effect on 9,11-azo PGH2 induced aggregation of rabbit platelet in vitro)
In the in vitro experiments, the blood was collected from the carotid artery of rabbits into plastic vessels containing 0.1 volume of 3.8% aqueous sodium citrate. Platelet rich plasma (PRP) was prepared by centrifugation at 150 g for 15 minutes. Platelet aggregation was investigated using the turbidometric method with an aggregometer (NKK HEMATRACER 1). To the 225 μl of PRP, 25 μl of test compound solution was added, and then stirred at 1000 rpm for 2 minutes at 37° C. To the solution, 5 μl of 9,11-azo PGH2 (final 1.0 μM) was added as an aggregating inducer. IC50 (Inhibition concentration of platelet aggregation by 50%) were graphically determined.

C[C@@H]1OC[C@H](C/C=C\CCCC(=O)O)[C@H](C=NNC(=O)Nc2ccccc2)O1 [Test compound 2]
IC50: 260 nM

Reference: patent US4929639A, “Oxygen-containing heterocyclic compound” (Fujisawa Pharmaceutical Company, Ltd., priority 1988, dated 1990)
